Test results as given in publication PMC10819019 (Pharmaceutics, 2024).

Experiment: Metabolite profiling in rats (bile, plasma, liver)
Type: in vivo, male Sprague–Dawley rats
Details: saxagliptin 100 mg/kg intraperitoneal injection, samples up to 4 h
Description: Male Sprague–Dawley (SD) rats (7 weeks old, 200–225 g) were purchased from SamTako Co. (Osan, Republic of Korea). The animals were acclimatized for one week in an animal facility at the College of Pharmacy, Kyungpook National University (Daegu, Republic of Korea). The Kyungpook National University Animal Care and Use Committee (KNU 2021-0120, 12 July 2021) approved the study protocol, conducted under the National Institutes of Health guidance for the care and use of laboratory animals. […] The bile duct was cannulated with polyethylene tubes (PE-10, Jungdo, Seoul, Republic of Korea) under isoflurane anesthesia (isoflurane vaporizer to 2% with oxygen flow at 0.8 L/min). […] Bile samples were then collected for 4 h. […] The liver tissues were immediately excised, gently washed with ice-cold saline-soaked wet tissue to remove the contaminated blood, and homogenized with 4 volumes of saline. Aliquots of plasma, bile, and 20% liver homogenates were stored at −80 °C until the analysis.
The liver homogenates were vortexed with the same volume of methanol/acetonitrile mixtures (1/1, v/v) and centrifuged (13,500× g, 10 min). The remaining pellets were reextracted twice, and pooled supernatants were dried and reconstituted with 50% methanol in water (100 μL) for LC-MS/MS analysis. Protein concentrations in the pellets were determined using a Bradford protein assay kit (Bio-Rad Laboratories, Hercules, CA, USA) with bovine serum albumin as a standard. The rat bile and plasma (200 μL) samples were vortexed with the same methanol/acetonitrile mixture volume (1/1, v/v). The mixture was centrifuged after vortexing, and the supernatants were dried to complete dryness and reconstituted with 50% methanol in water (100 μL) for LC-MS/MS analysis. The contents of biliverdin in the bile samples were analyzed by measuring ultraviolet absorbance at 380 nm using a microplate reader (Infinite M200 PRO, TECAN, Mannedorf, Switzerland) after 10-fold dilution with 50% methanol.

Row | Metabolite detection in rat bile, plasma and liver tissues | SMILES
1 | only found in rat bile | N#CC1CC2CC2N1C(=O)C(N)C12CC3CC(CC(OS(=O)(=O)O)(C3)C1)C2 (stereo not shown) [Metabolite M7, Saxagliptin-O-sulfate]
2 | observed in rats | NC(C(=O)N1C(C2=NC(C(=O)O)CS2)CC2CC21)C12CC3CC(CC(O)(C3)C1)C2 (stereo not shown) [Metabolite M3, Saxagliptin–cysteine conjugate]
3 | observed in rats | NC(C(=O)N1C(C2=NC(C(=O)NCC(=O)O)CS2)CC2CC21)C12CC3CC(O)(CC(O)(C3)C1)C2 (stereo not shown) [Metabolite M6, 5-Hydroxysaxagliptin–cysteinylglycine conjugate]

Row | SMILES | Metabolite detection in rat bile, plasma and liver tissues
4 | N#CC1CC2CC2N1C(=O)C(N)C12CC3CC(CC(OC4OC(C(=O)O)C(O)C(O)C4O)(C3)C1)C2 (stereo not shown) [Metabolite M8, Saxagliptin-O-glucuronide] | observed in rat bile, plasma, and liver tissues
5 | NC(C(=O)N1C(C2=NC(C(=O)NCC(=O)O)CS2)CC2CC21)C12CC3CC(CC(O)(C3)C1)C2 (stereo not shown) [Metabolite M5, Saxagliptin–cysteinylglycine conjugate] | found in rat bile, plasma, and liver tissues

Experiment: Metabolite profiling in rat liver microsomes
Type: in vitro ADME
Details: microsomal incubation with 5-hydroxysaxagliptin in the presence of L-cysteine
Experimental: L-cysteine (100 mM), glutathione (2.5 mM), or UDPGA (5 mM) was added after pre-incubation with or without 100 mM L-cysteine at 37 °C for 5 min to an NADPH-generating system (1.3 mM of NADP^+, 3.3 mM of G6P, 1 unit/mL of G6PDH, and 3.3 mM of MgCl2) to initiate the microsomal reaction. The reaction was stopped by adding cold acetonitrile after microsomal incubation for 2 h.
In the presence of L-cysteine (100 mM) or glutathione (100 mM) in phosphate buffer (100 mM, pH of 7.4), 5-Hydroxysaxagliptin (100 μM) was incubated at 37 °C for 2 h. The supernatants were analyzed using high-resolution Orbitrap MS after incubation reaction termination and centrifugation.

Row | Metabolite detection in incubate of 5-hydroxysaxagliptin with L-cysteine | SMILES
6 | detected | NC(C(=O)N1C(C2=NC(C(=O)O)CS2)CC2CC21)C12CC3CC(O)(CC(O)(C3)C1)C2 (stereo not shown) [Metabolite M4, 5-Hydroxysaxagliptin–cysteine conjugate]

Same assay, conditions: saxagliptin 100 μM, RLM 1 mg/mL, NADPH-generating system and/or L-cysteine, 2 h

Row | SMILES | Metabolite detection in incubates of saxagliptin
7 | N=C1NC(C23CC4CC(CC(O)(C4)C2)C3)N2C1CC1CC12 (stereo not shown) [Metabolite M1, Saxagliptin cyclic amidine] | found in the incubation sample of saxagliptin with buffer solution (Figure 5a) and RLM (Figure 5c) in the presence of +L-cysteine
8 | N#CC1CC2CC2N1C(=O)C(N)C12CC3CC(O)(CC(O)(C3)C1)C2 (stereo not shown) [Metabolite M2, 5-Hydroxysaxagliptin] | observed in rat liver microsomal incubation samples regardless of the addition of L-cysteine
9 | NC(C(=O)N1C(C2=NC(C(=O)O)CS2)CC2CC21)C12CC3CC(CC(O)(C3)C1)C2 (stereo not shown) [Metabolite M3, Saxagliptin–cysteine conjugate] | formed in an enzyme-nonspecific manner

Experiment: not given
Details: cited from earlier work

Row | SMILES | Stability on incubation with L-cysteine
10 | N[C@@H](CC(=O)N1CCn2c(nnc2C(F)(F)F)C1)Cc1cc(F)c(F)cc1F [sitagliptin] | stable
11 | Cc1cc2ncc(C(=O)NCC(C)(C)NCC(=O)N3CCC[C@H]3C#N)cn2n1 [anagliptin] | unstable
12 | CC#CCn1c(N2CCC[C@@H](N)C2)nc2c1c(=O)n(Cc1nc(C)c3ccccc3n1)c(=O)n2C [linagliptin] | stable
13 | Cn1c(=O)cc(N2CCC[C@@H](N)C2)n(Cc2ccccc2C#N)c1=O [alogliptin] | stable
